Experimental data as given in patent publication US20260240913A1, “METHODS FOR PRODUCING STABLE HUMAN CHONDROCTYES AND THEIR USE FOR PROMOTING CARTILLAGE GROWTH AND REPAIR” (Cambridge Enterprise Limited, priority 2023, published 2026).

Key:
[1] = test system: hBMSC/SSC; settings: chronic BMP blockade; Franco et al. 2022; cited from earlier work
[2] = test system: sclerotome cells; experiment: Chondrogenic differentiation of hiPSC-derived sclerotome cells (pellet cultures, chondrospheroids), staining and Incucyte imaging; assay type: cell-based, human; settings: pellet cultures from all sclerotome cells; 10 ng/mL each factor; across 42 days
Protocol: Staining Procedure. Paraffin-embedded tissues were used for immunofluorescence. Tissues were sectioned at 7 μm and heated for 1 hour at 60° C., then rehydrated in 2 washes of xylene (5 minutes), 100% ethanol (5 minutes), 95% ethanol (5 minutes), 70% ethanol (5 minutes), and distilled water (5 minute). Two different antigen retrieval methods were used: (1) for staining with COL1A1, COL2A1, COL10A1, PRG4, and hVIMENTIN, tissues were treated with 2 mg/mL hyaluronidase/PBS solution for 1 hour at 37° C., followed by a PBS wash and treatment with Pepsin (Millipore Sigma, Cat. No. R2283) for 5-10 minutes at 37° C.; (2) for staining with MGP, COMP, DPT, ACAN, and ALPL, tissues were incubated in citrate buffer (Millipore Sigma, Cat. No. C9999) for 1 hour at 70° C., followed by a 15-second wash with distilled water. Cytofix/Cytoperm buffer (BD, Cat. No. 554722) was used in some cases to enhance intracellular staining. Tissues were blocked in staining solution—PBS supplemented with 5% donkey serum (Sigma, Cat. No. D9663) and 0.5% IgePal (Sigma, Cat. No. I3021)—for 30 minutes, then stained with primary antibodies overnight at 4° C. […]
Confocal Imaging. […] Maximum intensity projections were merged in Fiji/Image J (National Institutes of Health) for image analysis and quantifications. […]

[3] = test system: hBMSCs/SSCs; experiment: scRNA-seq of hBMSC/SSC organoids with or without HyA-FMBs during chondrogenic differentiation; assay type: cell-based, human; settings: day 10 of chondrogenic differentiation
Protocol: (§1) Chondrogenic Differentiation of hBMSCs/SSC-derived Organoids: To generate control organoids, 2.5×10^5 hBMSCs/SSCs (passage 2) were suspended in 1 mL chondrogenic medium—which consisted of high glucose Dulbecco's Modified Eagle Medium (DMEM) with sodium pyruvate (ThermoFisher, Cat. No. 11995073), 1% insulin-transferrin-selenium (ThermoFisher, Cat. No. 51500056), 100 nM dexamethasone, 50 ug/mL L-ascorbic acid phosphate magnesium salt n-hydrate, 1% penicillin/streptomycin, and 10 ng/mL TGFβ1 (Peprotech, Cat. No. 100-21)—in 14 mL conical tubes. […]
Control and HyA-FMB organoids from days 1-10 and ectopic HyA-FMB transplant were digested in high-glucose DMEM containing 0.2% collagenase II (ThermoFisher, Cat. No. 17101015), 0.1% hyaluronidase (Merck, Cat. No. H3506), and 0.1% dispase (Sigma, Cat. No. D4693) with gentle pipetting every 20-30 minutes. […] Only samples with >95% viability were submitted for single-cell capture, as measured by Vi-CELL BLU Cell Viability Analyzer (Beckman Coulter). […] Reads were mapped using GRCh38-2020-A reference transcriptome, and libraries were processed using Cell Ranger version 7.0. […] Differentially expressed genes, which represented at least 25% of each cluster (p<0.05), were analyzed using gProfiler (biit.cs.ut.ee/gprofiler/gost) for functional enrichment analysis and cell cluster annotation.

[4] = test system: hBMSC/SSC organoids; experiment: Pan-ID inhibition in hBMSC/SSC organoids during chondrogenic differentiation, qRT-PCR of chondro-osteogenic genes; assay type: cell-based, human
Protocol: as §1, with “tubes. The same process was employed to generate HyA-FMB organoids, except each conical tube contained 3 mg of pre-sterilized HyA-FMBs (70% ethanol washes overnight), which were constructed according to established protocols (Kuznetsov et al., Stem Cells Translational Medicine, 26, 586-592. //doi.org/10.1016/j.joca.2018.02.293, 2019).” for “tubes.”
qRT-PCR. […] Lysates were processed according to Qiagen's RNeasy Mini Kit with DNAse treatment (Cat. No. 74004), and RNA quality and concentration was measured using NanoDrop. cDNA was constructed using SuperScript III First-Strand Synthesis SuperMix (ThermoFisher, Cat. No. 11752050) with no Reverse Transcriptase added to negative controls. Samples were measured in triplicate using the Quantstudio 6 Flex system (Applied Biosystems), and ΔΔCT values were calculated using GAPDH as internal controls.

[5] = test system: Hedgehog; settings: according to Wu et al. 2021; cited from earlier work

Cl.c1ccc2c(-c3cnn4cc(-c5ccc(N6CCNCC6)cc5)cnc34)ccnc2c1 [LDN 193189, 4-(6-(4-(piperazin-1-yl)phenyl)pyrazolo[1,5-a]pyrimidin-3-yl)quinoline hydrochloride]
hypertrophic expression [1]: does not prevent hypertrophic expression

TGFβ1: transforming growth factor β1, recombinant growth factor in chondrogenic medium
matrix protein expression in sclerotome-derived pellet cultures [2]: stable COL1A1 and COL2A1 expression across 42 days, with sporadic ACAN and minimal PRG4 expression | IBSP+ cell populations [3]: About 90%

CCC(=O)N(CCC(c1ccc2c(c1)OCO2)c1ccccc1OC)Cc1ccccc1 (stereo not drawn) [AGX51]
RUNX2, IBSP and COL1A1 (osteogenic) gene expression ([4]; 30 μM AGX51 every 2-3 days for 28 days, qRT-PCR at days 3, 7, 14, 21, 28, versus vehicle): initial decrease in RUNX2 and IBSP expression at days 3 and 7, followed by an increase in RUNX2, IBSP, and COL1A1 expression from days 21-28 | chondrogenic gene expression (SOX9, ACAN, and COL2A1) ([4]; 30 μM AGX51 for 28 days, qRT-PCR): initially decreased, but stabilized

c1ccc2c(Oc3nc(Nc4ccc(N5CCOCC5)cc4)c4ncn(C5CCCCC5)c4n3)cccc2c1 [purmorphamine]
suitability as Hedgehog agonist for sclerotome induction [5]: effective substitute for the commercially-synthesized Hedgehog agonist 21K
